From patent US20210253575A1, “PYRROLIDINE AMINE COMPOUNDS FOR THE TREATMENT OF AUTOIMMUNE DISEASE” (Hoffmann-La Roche Inc., priority 2018, published 2021)

The compounds below were run against T1, human TLR7 (Homo sapiens, UniProt Q9NYK1) (assay: HEK293-Blue-hTLR-7 cells assay (SEAP reporter, R848 stimulation)). Conditions: HEK293-Blue-hTLR7 cells, R848 ligand, 20 hrs incubation.
T1 sequence (Q9NYK1 27-1049): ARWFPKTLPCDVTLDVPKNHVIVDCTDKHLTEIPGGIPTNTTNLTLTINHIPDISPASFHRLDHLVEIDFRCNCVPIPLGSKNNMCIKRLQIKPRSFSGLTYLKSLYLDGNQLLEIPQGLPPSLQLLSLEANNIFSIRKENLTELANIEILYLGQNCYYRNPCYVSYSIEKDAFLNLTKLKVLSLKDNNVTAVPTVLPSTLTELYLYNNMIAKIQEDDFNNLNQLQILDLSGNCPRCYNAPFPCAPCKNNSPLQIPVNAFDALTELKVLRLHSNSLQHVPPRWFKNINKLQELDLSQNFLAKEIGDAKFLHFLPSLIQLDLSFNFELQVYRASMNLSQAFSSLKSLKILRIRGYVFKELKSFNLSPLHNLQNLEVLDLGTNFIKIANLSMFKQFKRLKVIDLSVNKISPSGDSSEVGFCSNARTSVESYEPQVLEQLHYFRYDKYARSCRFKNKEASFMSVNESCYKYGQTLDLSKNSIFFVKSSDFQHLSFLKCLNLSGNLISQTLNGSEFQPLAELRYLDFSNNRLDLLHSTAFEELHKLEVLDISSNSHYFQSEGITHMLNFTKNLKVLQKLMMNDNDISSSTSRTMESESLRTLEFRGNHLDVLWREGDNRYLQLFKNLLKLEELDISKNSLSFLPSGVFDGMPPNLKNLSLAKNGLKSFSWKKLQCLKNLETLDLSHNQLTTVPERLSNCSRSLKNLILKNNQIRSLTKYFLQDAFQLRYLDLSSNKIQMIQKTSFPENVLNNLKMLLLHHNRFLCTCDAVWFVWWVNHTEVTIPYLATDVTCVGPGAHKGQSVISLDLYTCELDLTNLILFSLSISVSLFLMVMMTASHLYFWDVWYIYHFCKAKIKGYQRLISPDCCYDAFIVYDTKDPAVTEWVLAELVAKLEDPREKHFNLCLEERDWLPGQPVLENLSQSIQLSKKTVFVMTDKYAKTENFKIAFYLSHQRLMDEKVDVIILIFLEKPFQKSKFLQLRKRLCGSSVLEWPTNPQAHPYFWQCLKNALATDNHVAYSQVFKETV
Type: cell-based
Procedure: The following tests were carried out in order to determine the activity of the compounds of formula (I) in HEK293-Blue-hTLR-7/8/9 cells assay.
HEK293-Blue-hTLR-7 Cells Assay:
A stable HEK293-Blue-hTLR-7 cell line was purchased from InvivoGen (Cat. #: hkb-htlr7, San Diego, Calif., USA). These cells were originally designed for studying the stimulation of human TLR7 by monitoring the activation of NF-κB. A SEAP (secreted embryonic alkaline phosphatase) reporter gene was placed under the control of the IFN-β minimal promoter fused to five NF-κB and AP-1-binding sites. The SEAP was induced by activating NF-κB and AP-1 via stimulating HEK-Blue hTLR7 cells with TLR7 ligands. Therefore the reporter expression was declined by TLR7 antagonist under the stimulation of a ligand, such as R848 (Resiquimod), for incubation of 20 hrs. The cell culture supernatant SEAP reporter activity was determined using QUANTI-Blue™ kit (Cat. #: rep-qb1, Invivogen, San Diego, Ca, USA) at a wavelength of 640 nm, a detection medium that turns purple or blue in the presence of alkaline phosphatase.
HEK293-Blue-hTLR7 cells were incubated at a density of 250,000-450,000 cells/mL in a volume of 170 μL in a 96-well plate in Dulbecco's Modified Eagle's medium (DMEM) containing 4.5 g/L glucose, 50 U/mL penicillin, […], […], 2 mM L-glutamine, 10% (v/v) heat-inactivated fetal bovine serum with addition of 20 μL test compound in a serial dilution in the presence of final DMSO at 1% and 10 μL of 20 uM R848 in above DMEM, perform incubation under 37° C. in a CO2 incubator for 20 hrs. Then 20 μL of the supernatant from each well was incubated with 180 μL Quanti-blue substrate solution at 37° C. for 2 hrs and the absorbance was read at 620-655 nm using a spectrophotometer. The signalling pathway that TLR7 activation leads to downstream NF-κB activation has been widely accepted, and therefore similar reporter assay was modified for evaluating TLR7 antagonist.

First: N#Cc1ccc(N2CC(CN3CCC4(CCNCC4)CC3)C3(CC3)C2)c2nccnc12 (centres unmarked) [Example 16, 8-[7-(3,9-Diazaspiro[5.5]undecan-3-ylmethyl)-5-azaspiro[2.4]heptan-5-yl]quinoxaline-5-carbonitrile]
Second: N#Cc1ccc(N2CC(CN3CCC4(CCNCC4)C3)C3(CC3)C2)c2nccnc12 (centres unmarked) [Example 32, 8-[7-(2,8-Diazaspiro[4.5]decan-2-ylmethyl)-5-azaspiro[2.4]heptan-5-yl]quinoxaline-5-carbonitrile]
The IC50 of the first is 3.6-fold lower: 113 nM for the first, 402 nM for the second. The first is the more potent here.

Compared with `C[C@H]1CN(c2ccc(C#N)c3nccnc23)C[C@@H]1CN1CCC2(CCNCC2)CC1` [Example 17, 8-[(3S,4R)-3-(3,9-diazaspiro[5.5]undecan-3-ylmethyl)-4-methyl-pyrrolidin-1-yl]quinoxaline-5-carbonitrile], `C[C@H]1CN(c2ccc(C#N)c3ncccc23)C[C@@H]1CN1CCC2(CCNCC2)CC1` [Example 23, 5-[(3S,4R)-3-(3,9-diazaspiro[5.5]undecan-3-ylmethyl)-4-methyl-pyrrolidin-1-yl]quinoline-8-carbonitrile] is 2-fold higher in IC50: 128 nM for the first, 251 nM for the second. The first is the more potent here.

Going from `N#Cc1ccc(N2CC(CN3C[C@H]4CNC[C@H]4C3)C3(CC3)C2)c2nccnc12` (stereo partly drawn) [Example 18, 8-[7-[[(3aR,6aS)-2,3,3a,4,6,6a-hexahydro-H-pyrrolo[3,4-c]pyrrol-5-yl]methyl]-5-azaspiro[2.4]heptan-5-yl]quinoxaline-5-carbonitrile] to `FC(F)(F)c1ccc(N2CC(CN3C[C@H]4CNC[C@H]4C3)C3(CC3)C2)c2nccnc12` (stereo partly drawn) [Example 41, 5-[7-[[(3aR,6aS)-2,3,3a,4,6,6a-hexahydro-H-pyrrolo[3,4-c]pyrrol-5-yl]methyl]-5-azaspiro[2.4]heptan-5-yl]-8-(trifluoromethyl)quinoxaline], the IC50 rises from 137 nM to 821 nM (6-fold). The first is the more potent here.

Compared with `FC(F)(F)c1ccc(N2CC(CN3CCNCC3)C3(CC3)C2)c2nccnc12` (centres unmarked) [Example 20, 5-[7-(Piperazin-1-ylmethyl)-5-azaspiro[2.4]heptan-5-yl]-8-(trifluoromethyl)quinoxaline], `FC(F)(F)c1ccc(N2CC(CN3CCC4(CCNCC4)CC3)C3(CC3)C2)c2nccnc12` (centres unmarked) [Example 31, 3-[[5-[8-(Trifluoromethyl)quinoxalin-5-yl]-5-azaspiro[2.4]heptan-7-yl]methyl]-3,9-diazaspiro[5.5]undecane] is 2.5-fold higher in IC50: 156 nM for the first, 385 nM for the second.

`N#Cc1ccc(N2CC(CN3CCC4(CCCNC4)C3)C3(CC3)C2)c2nccnc12` (centres unmarked) [Example 22, 8-[7-(2,9-Diazaspiro[4.5]decan-2-ylmethyl)-5-azaspiro[2.4]heptan-5-yl]quinoxaline-5-carbonitrile] and `N#Cc1ccc(N2CC(CN3CC4(CCCNC4)C3)C3(CC3)C2)c2nccnc12` (centres unmarked) [Example 24, 8-[7-(2,8-Diazaspiro[3.5]nonan-2-ylmethyl)-5-azaspiro[2.4]heptan-5-yl]quinoxaline-5-carbonitrile] are within 1.5-fold of each other in IC50: 201 nM for the first, 298 nM for the second.

Compared with `N#Cc1ccc(N2CC(CN3C4CCC3CC(N)C4)C3(CC3)C2)c2nccnc12` (centres unmarked) [Example 25, 8-[7-[(3-Amino-8-azabicyclo[3.2.1]octan-8-yl)methyl]-5-azaspiro[2.4]heptan-5-yl]quinoxaline-5-carbonitrile], `N#Cc1ccc(N2CC(CN3CC4(CC(N)C4)C3)C3(CC3)C2)c2nccnc12` (centres unmarked) [Example 42, 8-[7-[(6-Amino-2-azaspiro[3.3]heptan-2-yl)methyl]-5-azaspiro[2.4]heptan-5-yl]quinoxaline-5-carbonitrile] is 2.8-fold higher in IC50: 311 nM for the first, 867 nM for the second.

Going from `N#Cc1ccc(N2C[C@H](CN3CCC(N)CC3)[C@@H](C(F)(F)F)C2)c2nccnc12` [Example 26, 8-[(3S,4R)-3-[(4-Amino-1-piperidyl)methyl]-4-(trifluoromethyl)pyrrolidin-1-yl]quinoxaline-5-carbonitrile] to `N#Cc1ccc(N2C[C@H](CN3CC4(CC(N)C4)C3)[C@@H](C(F)(F)F)C2)c2nccnc12` [Example 47, 8-[(3S,4R)-3-[(6-amino-2-azaspiro[3.3]heptan-2-yl)methyl]-4-(trifluoromethyl)pyrrolidin-1-yl]quinoxaline-5-carbonitrile], the IC50 rises from 55 nM to 88 nM (1.6-fold). The first is the more potent here.

`C[C@H]1CN(c2ccc(C#N)c3nccnc23)C[C@@H]1CN1CCC2(CCNC2)C1` (stereo partly drawn) [Example 30, 8-[(3S,4R)-3-(2,7-diazaspiro[4.4]nonan-2-ylmethyl)-4-methyl-pyrrolidin-1-yl]quinoxaline-5-carbonitrile] and `C[C@H]1CN(c2ccc(C#N)c3ncccc23)C[C@@H]1CN1CCC2(CCNC2)C1` (stereo partly drawn) [Example 35, 5-[(3S,4R)-3-(2,7-diazaspiro[4.4]nonan-2-ylmethyl)-4-methyl-pyrrolidin-1-yl]quinoline-8-carbonitrile] are within 1.5-fold of each other in IC50: 382 nM for the first, 468 nM for the second.

First: N#Cc1ccc(N2CCC(CN3CCC4(CCNCC4)CC3)C2)c2nccnc12 (centres unmarked) [Example 37, 8-[3-(3,9-Diazaspiro[5.5]undecan-3-ylmethyl)pyrrolidin-1-yl]quinoxaline-5-carbonitrile]
Second: N#Cc1ccc(N2C[C@H](CN3CCC4(CCNCC4)C3)[C@@H](C(F)(F)F)C2)c2nccnc12 [Example 46, 8-[(3S,4R)-3-(2,8-diazaspiro[4.5]decan-2-ylmethyl)-4-(trifluoromethyl)pyrrolidin-1-yl]quinoxaline-5-carbonitrile]
The IC50 of the first is 7-fold higher: 651 nM for the first, 93 nM for the second.

Compared with `N#Cc1ccc(N2CC(CNC3CCCNCC3)C3(CC3)C2)c2nccnc12` (centres unmarked) [Example 39, 8-[7-[(Azepan-4-ylamino)methyl]-5-azaspiro[2.4]heptan-5-yl]quinoxaline-5-carbonitrile], `N#Cc1ccc(N2CC(CN3CC4CCNCC43)C3(CC3)C2)c2nccnc12` (centres unmarked) [Example 50, 8-[7-(3,8-Diazabicyclo[4.2.0]octan-8-ylmethyl)-5-azaspiro[2.4]heptan-5-yl]quinoxaline-5-carbonitrile] is 3.1-fold lower in IC50: 709 nM for the first, 232 nM for the second. The second is the more potent here.

Compared with `C[C@@H]1CN(c2ccc(C(F)(F)F)c3nccnc23)C[C@H]1CNC1CCCNCC1` (some centres unmarked) [Example 40], `N#Cc1ccc(N2C[C@H](CN3CC4(CCNCC4)C3)[C@@H](C(F)(F)F)C2)c2nccnc12` [Example 48, 8-[(3S,4R)-3-(2,7-diazaspiro[3.5]nonan-2-ylmethyl)-4-(trifluoromethyl)pyrrolidin-1-yl]quinoxaline-5-carbonitrile] is 15-fold lower in IC50: 746 nM for the first, 51 nM for the second.

Compared with `N#Cc1ccc(N2CC(CN3CCC4(CCNC4)C3)C3(CC3)C2)c2cccnc12` (centres unmarked) [Example 43, 5-[7-(2,7-Diazaspiro[4.4]nonan-2-ylmethyl)-5-azaspiro[2.4]heptan-5-yl]quinoline-8-carbonitrile], `N#Cc1ccc(N2CC(CN3CCC4(CC3)CNCCO4)C3(CC3)C2)c2nccnc12` (centres unmarked) [Example 49, 8-[7-(1-Oxa-4,9-diazaspiro[5.5]undecan-9-ylmethyl)-5-azaspiro[2.4]heptan-5-yl]quinoxaline-5-carbonitrile] is 5.9-fold lower in IC50: 899 nM for the first, 153 nM for the second.

Compared with `N#Cc1ccc(N2C[C@H](CN3CCC4(CCCNC4)CC3)[C@@H](C(F)(F)F)C2)c2nccnc12` [Example 45, 8-[(3S,4R)-3-(2,9-diazaspiro[5.5]undecan-9-ylmethyl)-4-(trifluoromethyl)pyrrolidin-1-yl]quinoxaline-5-carbonitrile], `N#Cc1ccc(N2C[C@H](CN3CCC(N)CC3)[C@@H](C(F)(F)F)C2)c2nccnc12` [Example 51, 8-[(3S,4R)-3-[(4-amino-1-piperidyl)methyl]-4-(trifluoromethyl)pyrrolidin-1-yl]quinoxaline-5-carbonitrile] is 1.8-fold higher in IC50: 49 nM for the first, 90 nM for the second.
